Experiments:
[1] = Dose escalation 100-800 mg in cancer patients, dose-limiting toxicity; type: in vivo, human; conditions: highest dose group (800 mg); one patient within the first 3 patients
Method: HDAC enzyme activity, H4 Histone acetylation and gene expression of a group of genes were measured in the dose groups 100 mg, 200 mg, 400 mg, 600 mg and 800 mg. Each group consisted of 3 patients with different types of tumors. The highest dose group consisted of 6 patients due to a dose-limiting toxicity [DLT] […] The treatment cycles were as detailed for the SAPHIRE, SHELTER and SHORE clinical trials described herein below.

18S [2] = experiment: qPCR relative expression (vs cycle 1, day 1, hour 0) in patients' whole blood; type: in vivo, human
Method: (§1) 2.5 ml whole blood from patients was collected in PAXgene™ tubes (BD Biosciences) that contain chemicals to lyse the erythrocytes, stabilize RNA from degradation by RNases and minimize ex vivo changes in gene expression. The samples were incubated at 20° C. to 25° C. for 2 hours and then frozen at −20° C. until purification of total RNA.
(§2) Total RNA was isolated from the whole blood samples stabilized in PAXgene™ buffer using a spin column based technique suitable for whole blood samples (like PAXgene™ Blood miRNA Kit or PAXgene™ Blood RNA Kit from Qiagen) according to the manufacturer's instructions. The purification began with a centrifugation step to pellet nucleic acids in the (PAXgene™ Blood RNA) tube. The resuspended pellet was incubated in buffers, optimized for maintenance of RNA stability together with proteinase K to bring about protein digestion. An additional centrifugation through the PAXgene™ Shredder spin column was carried out to homogenize the cell lysate and remove residual cell debris, and the supernatant of the flow-through fraction was transferred to a fresh microcentrifuge tube. Ethanol was added to adjust binding conditions, and the lysate was applied to a PAXgene™ RNA spin column. During a brief centrifugation, RNA was selectively bound to the PAXgene™ silica membrane as contaminants pass through. Remaining contaminants were removed in several efficient wash steps. Between the first and second wash steps, the membrane was treated with DNase I, as described herein below in 1.3 to remove trace amounts of bound DNA. After the wash steps, RNA was eluted in nuclease free water and heat-denatured.
(§3) The High-Capacity cDNA Reverse Transcription Kit (Applied Biosystems) was used for reverse transcription of total RNA into single stranded cDNA with the aid of random hexamer primers according to the manufacturer's instructions. Briefly, for the reaction mix total RNA was mixed with random primers in excess, 4 mM dNTP Mix, 2.5 U/reaction, reverse transcriptase and nuclease free water. The reverse transcription took place in a thermal cycler under the following conditions: 25° C. for 10 min, 37° C. for 120 min, 85° C. for 5 min, followed by 4° C. for cooling down the reaction. The reverse transcription can be done in principle as well with other reverse transcriptases, primers and temperature protocols. Whenever possible, 250 ng total RNA were reverse transcribed if not available, lower amounts were used.
(§4) Custom TaqMan® Arrays (Applied Biosystems) in Format 16 were designed for the gene expression analysis of biomarkers of the present invention and housekeeping genes as outlined in table 4. These arrays allow for qPCR analysis of 8 samples per card. Of course, all reactions can be done as well by conventional qPCR analysis with specific primers.
(§5) The reaction mix was transferred into the reaction chambers by centrifuging twice for 1 minute each at 330 g and 4° C. After sealing, the microfluidic cards were run on an AB7900HT instrument (Applied Biosystems). The software SDS 2.4 (Applied Biosystems) was employed for instrument control, data acquisition and raw data analysis. The plates were run in Relative Quantification (ΔΔCt) mode, and the following temperature profile was used:
(§6) This analysis was carried out for each patient separately. The first sample (cycle 1, day 1, hour 0) was used as the reference sample. The ‘exprs’ value indicates relative expression levels (fold change values) for individual samples.
(§7) Table 5 contains the median expression level values for treatment day 5 (cycle 1, day 5, hours 0, 2, and 5) at a daily dose of 600 mg or 800 mg Resminostat mesylate salt is given below.

HIST2H4A; HIST2H4B = experiment: as above; type: in vivo, human
Method: as §1, §2, §3, §4, §5, §6, §7

18S [3] = experiment: Gene expression in HepG2 cancer cells (in vitro); type: cell-based, human; conditions: standardized to 0 h
Method: (§8) Hatched columns relate to blood, black columns relate to HepG2 cells, white boxes relate to HT 29 cells. Values are standardized to the value at 0 h.
(§9) Samples were obtained and gene expressions were determined with the methods as described herein below. The results are shown in below table 3 and FIGS. 2 and 3
(§10) The above values represent a mean value which was determined on the basis of 2 biological replicates, for each of which 3 technical replicates were prepared. […] The level of gene expression determined in peripheral blood samples can be correlated with a certain level of activity of HDAC in the diseased cells, e.g. by applying an appropriate conversion factor or conversion table, which may be determined for each specific disease, and/or patient group.
(§11) To determine RNA expression levels of ZFP64 in different cancer cell lines and PBMC, the cell membranes were chemically disrupted with a buffer containing guanidine isothiocycanate, which lyses the cells and supports the binding of RNA to a silica membrane and RNA was extracted via a filter-based spin column.
as §3, §4

DPP3 = experiment: Gene expression in HepG2 cancer cells (in vitro); type: cell-based, human; conditions: standardized to 0 h
Method: as §8, §9, §10, §11, §3, §4

GAPDH = experiment: Gene expression in HepG2 cancer cells (in vitro); type: cell-based, human; conditions: standardized to 0 h
Method: as §8, §9, §10, §11, §3, §4

HIST2H4A/B = experiment: Gene expression in HepG2 cancer cells (in vitro); type: cell-based, human; conditions: standardized to 0 h
Method: as §8, §9, §10, §11, §3, §4

KDELC2 = experiment: Gene expression in HepG2 cancer cells (in vitro); type: cell-based, human; conditions: standardized to 0 h
Method: as §8, §9, §10, §11, §3, §4

MICALL1 = experiment: Gene expression in HepG2 cancer cells (in vitro); type: cell-based, human; conditions: standardized to 0 h
Method: as §8, §9, §10, §11, §3, §4

TBP = experiment: Gene expression in HepG2 cancer cells (in vitro); type: cell-based, human; conditions: standardized to 0 h
Method: as §8, §9, §10, §11, §3, §4

ZFP64 [4] = experiment: Gene expression in HepG2 cancer cells (in vitro); type: cell-based, human; conditions: standardized to 0 h
Method: as §8, §9, §10, §11, §3, §4

ZFP64 [5] = experiment: ZFP64 fold change in HepG2, whole blood and PBMCs of a healthy donor (FIG. 4d); type: cell-based, human; conditions: HepG2, whole blood, PBMC; resminostat 5 μM (combination: + sorafenib 5 μM); vs DMSO control
Method: For comparison reasons, the siRNA experiment (ZFP64 knockdown) on HepG2 cells is shown. The samples are compared to a DMSO control and the fold change is determined with the exception of the siRNA samples, which are compared to the resminostat sample.
as §11

[6] = cycle 1, day 5, hour 0, 600 mg dose
[7] = cycle 1, day 5, hour 0, 800 mg dose
[8] = cycle 1, day 5, hour 2, 600 mg dose
[9] = cycle 1, day 5, hour 2, 800 mg dose
[10] = cycle 1, day 5, hour 5, 600 mg dose
[11] = cycle 1, day 5, hour 5, 800 mg dose

Question: For CN(C)Cc1ccc(S(=O)(=O)n2ccc(/C=C/C(=O)NO)c2)cc1 [resminostat, (E)-3-(1-(4-((dimethylamino)methyl)phenylsulfonyl)-1H-pyrrol-3-yl)-N-hydroxyacrylamide], which “Dose-limiting toxicity [DLT]” value [1] is on record?
Answer: The value was “fatigue and nausea grade 3”.

Question: What about the “Median expression level, 18S” value (18S [2]; [6]) of the same molecule?
Answer: The value was 0.872.

Question: And the “Median expression level, 18S” value (18S [2]; [7])?
Answer: Its value is 0.635.

Question: And the “Median expression level, 18S” value (18S [2]; [8])?
Answer: Its value is 0.871.

Question: What about the “Median expression level, 18S” value (18S [2]; [9]) of the same molecule?
Answer: The value was 0.682.

Question: And the “Median expression level, 18S” value (18S [2]; [10])?
Answer: The value was 0.778.

Question: And the “Median expression level, 18S” value (18S [2]; [11])?
Answer: The value was 0.550.

Question: What about the “Median expression level, HIST2H4A; HIST2H4B” value (HIST2H4A; HIST2H4B; [6]) of the same molecule?
Answer: Its value is 0.875.

Question: What about the “Median expression level, HIST2H4A; HIST2H4B” value (HIST2H4A; HIST2H4B; [7]) of the same molecule?
Answer: Its value is 1.530.

Question: And the “Median expression level, HIST2H4A; HIST2H4B” value (HIST2H4A; HIST2H4B; [8])?
Answer: The value was 2.111.

Question: What about the “Median expression level, HIST2H4A; HIST2H4B” value (HIST2H4A; HIST2H4B; [9]) of the same molecule?
Answer: The value was 3.345.

Question: What about the “Median expression level, HIST2H4A; HIST2H4B” value (HIST2H4A; HIST2H4B; [10]) of the same molecule?
Answer: Its value is 2.042.

Question: What about the “Median expression level, HIST2H4A; HIST2H4B” value (HIST2H4A; HIST2H4B; [11]) of the same molecule?
Answer: Its value is 2.821.

Question: What about the “Expression level, 18s (housekeeping gene)” value (18S [3]; 2 h) of the same molecule?
Answer: Its value is 0.91.

Question: And the “Expression level, 18s (housekeeping gene)” value (18S [3]; 5 h)?
Answer: Its value is 0.87.

Question: What about the “Expression level, DPP3” value (DPP3; 2 h) of the same molecule?
Answer: The value was 0.86.

Question: What about the “Expression level, DPP3” value (DPP3; 5 h) of the same molecule?
Answer: Its value is 0.72.

Question: And the “Expression level, GAPDH (housekeeping gene)” value (GAPDH; 2 h)?
Answer: The value was 0.96.

Question: What about the “Expression level, GAPDH (housekeeping gene)” value (GAPDH; 5 h) of the same molecule?
Answer: Its value is 1.03.

Question: And the “Expression level, HIST2H4A/B” value (HIST2H4A/B; 2 h)?
Answer: The value was 0.88.

Question: And the “Expression level, HIST2H4A/B” value (HIST2H4A/B; 5 h)?
Answer: Its value is 1.17.

Question: And the “Expression level, KDELC2” value (KDELC2; 2 h)?
Answer: Its value is 0.84.

Question: And the “Expression level, KDELC2” value (KDELC2; 5 h)?
Answer: The value was 0.54.

Question: And the “Expression level, MICALL1” value (MICALL1; 2 h)?
Answer: The value was 0.85.

Question: What about the “Expression level, MICALL1” value (MICALL1; 5 h) of the same molecule?
Answer: The value was 0.50.

Question: And the “Expression level, TBP (housekeeping gene)” value (TBP; 2 h)?
Answer: The value was 1.15.

Question: And the “Expression level, TBP (housekeeping gene)” value (TBP; 5 h)?
Answer: Its value is 1.12.

Question: What about the “Expression level, ZFP64” value (ZFP64 [4]; 2 h) of the same molecule?
Answer: The value was 0.46.

Question: And the “Expression level, ZFP64” value (ZFP64 [4]; 5 h)?
Answer: The value was 0.19.

Question: And the “Regulation of ZFP64, fold change (FIG. 4d)” value (ZFP64 [5])?
Answer: The value was “down-regulation”.

From patent US20160215348A1, “GENE EXPRESSION BIOMARKERS AND THEIR USE FOR DIAGNOSTIC AND PROGNOSTIC APPLICATION IN PATIENTS POTENTIALLY IN NEED OF HDAC INHIBITOR TREATMENT” (4SC AG, priority 2013, published 2016)
